The NIST ThermoML archive (doi:10.1021/je049721u)

Experiment: mn = molality of the nth substance listed, in mol/kg
Conditions: 101.3 kPa, Liquid; for speed of sound: Pulse-echo method

[Mn+2].[O-][Cl+3]([O-])([O-])[O-].[O-][Cl+3]([O-])([O-])[O-] [manganese (II) perchlorate] + CN(C)C=O
Conditions	mass density, 283.15 K [kg/m3]	mass density, 293.15 K [kg/m3]	mass density, 298.15 K [kg/m3]	mass density, 303.15 K [kg/m3]	mass density, 313.15 K [kg/m3]	mass density, 323.15 K [kg/m3]	mass density, 333.15 K [kg/m3]	speed of sound, 298.15 K [m/s]
m1 = 0.04109	966.326	956.852	952.107	947.355	937.821	928.242	918.616	1460.8
m1 = 0.05823	969.773	960.312	955.574	950.83	941.313	931.759	922.147	–
m1 = 0.08396	974.96	965.52	960.793	956.059	946.568	937.04	927.465	1464.6
m1 = 0.1024	978.695	969.265	964.546	959.822	950.346	940.834	931.273	–
m1 = 0.1233	982.926	973.513	968.799	964.082	954.629	945.142	935.612	1468.2
m1 = 0.1616	990.785	981.396	976.698	971.997	962.575	953.124	943.633	1471.4
m1 = 0.2007	998.895	989.531	984.846	980.162	970.768	961.357	951.918	1475
m1 = 0.2395	1007.03	997.69	993.019	988.351	978.996	969.623	960.225	1478.3
m1 = 0.2793	1015.47	1006.16	1001.5	996.842	987.519	978.179	968.812	1481.9
m1 = 0.3166	1023.51	1014.22	1009.58	1004.94	995.645	986.342	977.019	1485.6
m1 = 0.3529	1031.38	1022.11	1017.48	1012.85	1003.59	994.313	985.025	1488.9
m1 = 0.3885	1039.21	1029.96	1025.35	1020.73	1011.5	1002.27	993.029	1492.5

[Ni+2].[O-][Cl+3]([O-])([O-])[O-].[O-][Cl+3]([O-])([O-])[O-] [nickel perchlorate] + CN(C)C=O
Conditions	mass density, 283.15 K [kg/m3]	mass density, 293.15 K [kg/m3]	mass density, 298.15 K [kg/m3]	mass density, 303.15 K [kg/m3]	mass density, 313.15 K [kg/m3]	mass density, 323.15 K [kg/m3]	mass density, 333.15 K [kg/m3]	speed of sound, 298.15 K [m/s]
m1 = 0.027	–	–	–	–	–	–	–	1459.6
m1 = 0.02709	963.872	954.383	949.635	944.864	935.312	925.725	916.07	–
m1 = 0.0405	966.705	957.208	952.461	947.7	938.159	928.568	918.935	1460.7
m1 = 0.054	969.549	960.073	955.329	950.578	941.045	931.471	921.848	1461.7
m1 = 0.0681	972.55	963.083	958.342	953.59	944.072	934.511	924.9	1462.9
m1 = 0.08156	975.396	965.94	961.2	956.46	946.947	937.4	927.809	1463.9
m1 = 0.1073	980.845	971.397	966.666	961.935	952.463	942.934	933.366	1466
m1 = 0.1332	986.418	976.985	972.262	967.533	958.059	948.552	939.005	1467.8
m1 = 0.1592	992.026	982.603	977.888	973.17	963.711	954.224	944.695	1470
m1 = 0.1864	997.967	988.557	983.849	979.136	969.697	960.23	950.732	1471.8
m1 = 0.2118	1003.54	994.141	989.44	984.736	975.313	965.882	956.405	1473.6
m1 = 0.2613	1014.55	1005.16	1000.47	995.784	986.394	976.988	967.56	1477.5

[Co+2].[O-][Cl+3]([O-])([O-])[O-].[O-][Cl+3]([O-])([O-])[O-] [cobalt(II) perchlorate] + CN(C)C=O
Conditions	mass density, 283.15 K [kg/m3]	mass density, 293.15 K [kg/m3]	mass density, 298.15 K [kg/m3]	mass density, 303.15 K [kg/m3]	mass density, 313.15 K [kg/m3]	mass density, 323.15 K [kg/m3]	mass density, 333.15 K [kg/m3]	speed of sound, 298.15 K [m/s]
m1 = 0.02921	964.275	954.785	950.026	945.273	935.722	926.127	916.489	1459.6
m1 = 0.03591	965.673	956.19	951.432	946.682	937.135	927.546	917.907	–
m1 = 0.05081	968.79	959.315	954.565	949.82	940.29	930.711	921.09	1461.4
m1 = 0.05902	970.508	961.035	956.29	951.55	942.021	932.457	922.843	1462.1
m1 = 0.08863	976.733	967.283	962.549	957.809	948.308	938.77	929.181	1464.2
m1 = 0.1167	982.692	973.255	968.53	963.801	954.319	944.808	935.256	1466.5
m1 = 0.1455	988.838	979.414	974.697	969.98	960.52	951.034	941.509	1468.5
m1 = 0.1735	994.845	985.454	980.747	976.035	966.596	957.13	947.626	1471
m1 = 0.2007	1000.8	991.403	986.7	981.997	972.578	963.135	953.661	1472.8
m1 = 0.2305	1007.33	997.94	993.248	988.552	979.153	969.73	960.286	1475.4
m1 = 0.2574	1013.28	1003.91	999.223	994.536	985.152	975.753	966.326	1477.5
m1 = 0.284	1019.22	1009.86	1005.18	1000.5	991.143	981.766	972.371	1479.7
